In patent publication US10023592B2, “Bromodomain inhibitors” (Celgene Quanticel Research, Inc., priority 2013, dated 2018):

Columns and labels:
[1] = system: HL-60, human proleukemia cells; test: Cell-MTS proliferation assay, HL-60; type: cell-based; conditions: Homo sapiens, 168 hr
Procedure, shortened: (§1)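 Seed: Raji 15,000, HL-60 5,000, NCI-H460 3,000 cells/96-well. +24 hr: 11-pt compound dilution, 100 μM–2.0 nM final. 7 d culture, MTS reagent, read OD490; IC50 vs DMSO, background subtracted.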

[2] = system: Raji, human Burkitts lymphoma cells; test: Cell-MTS proliferation assay, Raji; type: cell-based; conditions: Homo sapiens, 168 hr
Procedure, shortened: as §1

[3] = molecular target: BRD4(BD1) (Homo sapiens (Human), UniProt O60885); test: In vitro enzyme inhibition assay (BRD4 AlphaScreen); type: binding
Procedure, shortened: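 His-tagged BRD4 tested by AlphaScreen for binding of biotinylated H4K5/8/12/16-tetraacetyl peptide. After 20 min at room temperature, streptavidin donor and nickel chelate acceptor beads added (5 μg/mL final each). IC50 determined.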

[4] = system: NCI-H460, human non-small cell lung cancer cells; test: Cell-MTS proliferation assay, NCI-H460; type: cell-based; conditions: Homo sapiens, 168 hr
Procedure, shortened: as §1

[5] = Cell-MTS proliferation, HL-60 cells
[6] = Cell-MTS proliferation, Raji cells
[7] = in vitro enzyme inhibition assay
[8] = Cell-MTS proliferation, NCI-H460 cells
[9] = NCI-H460, Cell-MTS proliferation

SMILES: CCS(=O)(=O)c1ccc(OCC2CC2)c(-c2cc(C)c(=O)n(C)c2)c1 [Example 450, 5-[2-(cyclopropylmethoxy)-5-ethylsulfonylphenyl]-1,3-dimethylpyridin-2-one]
- IC50 [1, 5]: < 500 nM
- IC50 [2, 6]: < 500 nM
- IC50 [3, 7]: < 500 nM
- IC50 [4, 8]: > 5000 nM

SMILES: CCS(=O)(=O)c1ccc(OCC2CC2)c(-c2cn(C)c(=O)c3cncn23)c1 [Example 368, 5-[2-(cyclopropylmethoxy)-5-ethylsulfonylphenyl]-7-methylimidazo[1,5-a]pyrazine-8-one]
- IC50 ([1]; HL-60, Cell-MTS proliferation): < 500 nM
- IC50 ([2]; Raji, Cell-MTS proliferation): < 500 nM
- IC50 [3, 7]: < 500 nM
- IC50 [4, 9]: 500 to 5000 nM

SMILES: Cc1cc(-c2cc(S(C)(=O)=O)ccc2NC2CCCC2)cn(C)c1=O [Example 417, 5-[2-(cyclopentylamino)-5-methylsulfonylphenyl]-1,3-dimethylpyridin-2-one]
- IC50 [1, 5]: < 500 nM
- IC50 [2, 6]: < 500 nM
- IC50 [3, 7]: < 500 nM
- IC50 [4, 8]: > 5000 nM

SMILES: CC(=O)Nc1ccc(S(C)(=O)=O)cc1-c1cn(C)c(=O)c2ccccc12 [Example 222, N-[2-(2-methyl-1-oxoisoquinolin-4-yl)-4-methylsulfonylphenyl]acetamide]
- IC50 ([1]; HL-60, Cell-MTS proliferation): > 5000 nM
- IC50 ([2]; Raji, Cell-MTS proliferation): > 5000 nM
- IC50 [3, 7]: > 5000 nM
- IC50 [4, 9]: > 5000 nM

SMILES: CCS(=O)(=O)Nc1ccc(Oc2ccc(F)cc2F)c(-c2cc(OC)c(=O)n(C)c2)c1 [Example 443, N-[4-(2,4-difluorophenoxy)-3-(5-methoxy-1-methyl-6-oxopyridin-3-yl)phenyl]ethanesulfonamide]
- IC50 [1, 5]: < 500 nM
- IC50 [2, 6]: < 500 nM
- IC50 [3, 7]: < 500 nM
- IC50 [4, 8]: > 5000 nM

SMILES: CC#CCOc1ccc(S(=O)(=O)CC)cc1-c1cn(C)c(=O)c2ccccc12 [Example 185, 4-(2-but-2-ynoxy-5-ethylsulfonylphenyl)-2-methylisoquinolin-1-one]
- IC50 ([1]; HL-60, Cell-MTS proliferation): < 500 nM
- IC50 ([2]; Raji, Cell-MTS proliferation): < 500 nM
- IC50 [3, 7]: < 500 nM
- IC50 [4, 9]: > 5000 nM

SMILES: CCS(=O)(=O)Nc1ccc(OC2CCC(F)(F)CC2)c(-c2cc(C)c(=O)n(C)c2)c1 [Example 449, N-[4-(4,4-difluorocyclohexyl)oxy-3-(1,5-dimethyl-6-oxopyridin-3-yl)phenyl] ethanesulfonamide]
- IC50 [1, 5]: < 500 nM
- IC50 [2, 6]: < 500 nM
- IC50 [3, 7]: < 500 nM
- IC50 [4, 8]: > 5000 nM

SMILES: CCS(=O)(=O)Nc1ncc(Oc2ccc(F)cc2F)c(-c2cn(C)c(=O)c3c2CCCC3)n1 [Example 173, N-[5-(2,4-difluorophenoxy)-4-(2-methyl-1-oxo-5,6,7,8-tetrahydroisoquinolin-4-yl)pyrimidin-2-yl]ethanesulfonamide]
- IC50 ([1]; HL-60, Cell-MTS proliferation): 500 to 5000 nM
- IC50 ([2]; Raji, Cell-MTS proliferation): 500 to 5000 nM
- IC50 [3, 7]: < 500 nM
- IC50 [4, 9]: > 5000 nM

SMILES: CCS(=O)(=O)Nc1ccc(Oc2ccc(F)cc2F)c(-c2cc(SC)c(=O)n(C)c2)c1 [Example 402, N-[4-(2,4-difluorophenoxy)-3-(1-methyl-5-methylsulfanyl-6-oxopyridin-3-yl)phenyl]ethanesulfonamide]
- IC50 [1, 5]: < 500 nM
- IC50 [2, 6]: < 500 nM
- IC50 [3, 7]: < 500 nM
- IC50 [4, 8]: > 5000 nM

SMILES: Cn1cc(-c2nc(NS(C)(=O)=O)ncc2OCC2CC2)c2cc(F)ccc2c1=O [Example 159, N-[5-(cyclopropylmethoxy)-4-(6-fluoro-2-methyl-1-oxoisoquinolin-4-yl)pyrimidin-2-yl]methanesulfonamide]
- IC50 ([1]; HL-60, Cell-MTS proliferation): < 500 nM
- IC50 ([2]; Raji, Cell-MTS proliferation): < 500 nM
- IC50 [3, 7]: < 500 nM
- IC50 [4, 9]: > 5000 nM

SMILES: Cn1cc(-c2cc(S(C)(=O)=O)ccc2O[C@H]2CC[C@H](O)CC2)c2cc(F)ccc2c1=O [Example 186, 6-fluoro-4-[2-(trans-4-hydroxycyclohexyl)oxy-5-methylsulfonylphenyl]-2-methylisoquinolin-1-one]
- IC50 ([1]; HL-60, Cell-MTS proliferation): < 500 nM
- IC50 ([2]; Raji, Cell-MTS proliferation): < 500 nM
- IC50 [3, 7]: < 500 nM
- IC50 [4, 9]: > 5000 nM

SMILES: Cc1cc(-c2cc(S(C)(=O)=O)ccc2O[C@H]2CC[C@H](N)CC2)cn(C)c1=O [Example 404, 5-[2-(trans-4-aminocyclohexyl)oxy-5-methylsulfonylphenyl]-1,3-dimethylpyridin-2-one]
- IC50 [1, 5]: < 500 nM
- IC50 [2, 6]: > 5000 nM
- IC50 [3, 7]: < 500 nM
- IC50 [4, 8]: > 5000 nM

SMILES: COCC1COc2cc(S(C)(=O)=O)cc(-c3cc(C)c(=O)n(C)c3)c2O1 (stereo not drawn) [Example 498, 5-[3-(methoxymethyl)-7-methylsulfonyl-2,3-dihydro-1,4-benzodioxin-5-yl]-1,3-dimethylpyridin-2-one]
- IC50 [1, 5]: 500 to 5000 nM
- IC50 [2, 6]: > 5000 nM
- IC50 [3, 7]: < 500 nM
- IC50 [4, 8]: > 5000 nM

SMILES: CCS(=O)(=O)Nc1ccc(Oc2ccc(F)cc2F)c(-c2ccc(=O)n(C)c2)c1 [Example 99, N-[4-(2,4-difluorophenoxy)-3-(1-methyl-6-oxopyridin-3-yl)phenyl]ethanesulfonamide]
- IC50 ([1]; HL-60, Cell-MTS, class symbols A/B/C): < 500 nM
- IC50 ([2]; Raji, Cell-MTS, class symbols A/B/C): < 500 nM
- IC50 ([3]; class symbols A/B/C): < 500 nM
- IC50 ([4]; NCI-H460, Cell-MTS, class symbols A/B/C): > 5000 nM

SMILES: CCS(=O)(=O)c1ccc(OCC2CC2)c(-c2cc(C3CC3)c(=O)n(C)c2)c1 [Example 280, 3-cyclopropyl-5-[2-(cyclopropylmethoxy)-5-ethylsulfonylphenyl]-1-methylpyridin-2-one]
- IC50 ([1]; HL-60, Cell-MTS proliferation): < 500 nM
- IC50 ([2]; Raji, Cell-MTS proliferation): < 500 nM
- IC50 [3, 7]: < 500 nM
- IC50 [4, 9]: > 5000 nM

SMILES: CCS(=O)(=O)Nc1ccc(O[C@H]2CC[C@@H](O)CC2)c(-c2cc(C)c(=O)n(C)c2)c1 [Example 431, N-[3-(1,5-dimethyl-6-oxopyridin-3-yl)-4-(cis-4-hydroxycyclohexyl)oxyphenyl]ethanesulfonamide]
- IC50 [1, 5]: < 500 nM
- IC50 [2, 6]: 500 to 5000 nM
- IC50 [3, 7]: < 500 nM
- IC50 [4, 8]: > 5000 nM

SMILES: Cn1cc(-c2cc(S(C)(=O)=O)ccc2OC2CCCOC2)c2ccccc2c1=O (stereo not drawn) [Example 179, 2-methyl-4-[5-methylsulfonyl-2-(oxan-3-yloxy)phenyl]isoquinolin-1-one]
- IC50 ([1]; HL-60, Cell-MTS proliferation): < 500 nM
- IC50 ([2]; Raji, Cell-MTS proliferation): < 500 nM
- IC50 [3, 7]: < 500 nM
- IC50 [4, 9]: > 5000 nM

SMILES: Cc1cc(-c2cc(NS(C)(=O)=O)ccc2O[C@H]2CC[C@@H](O)CC2)cn(C)c1=O [Example 434, N-[3-(1,5-dimethyl-6-oxopyridin-3-yl)-4-(cis-4-hydroxycyclohexyl)oxyphenyl] methanesulfonamide]
- IC50 [1, 5]: 500 to 5000 nM
- IC50 [2, 6]: 500 to 5000 nM
- IC50 [3, 7]: < 500 nM
- IC50 [4, 8]: > 5000 nM

SMILES: Cn1cc(-c2cc(CS(C)(=O)=O)ccc2Oc2ccc(F)cc2F)ccc1=O [Example 470, 5-[2-(2,4-difluorophenoxy)-5-(methylsulfonylmethyl)phenyl]-1-methylpyridin-2-one]
- IC50 [1, 5]: < 500 nM
- IC50 [2, 6]: < 500 nM
- IC50 [3, 7]: < 500 nM
- IC50 [4, 8]: 500 to 5000 nM

SMILES: CCS(=O)(=O)c1ccc(NC2CCCC2)c(-c2cc(C)c(=O)n(C)c2)c1 [Example 416, 5-[2-(cyclopentylamino)-5-ethylsulfonylphenyl]-1,3-dimethylpyridin-2-one]
- IC50 [1, 5]: < 500 nM
- IC50 [2, 6]: < 500 nM
- IC50 [3, 7]: < 500 nM
- IC50 [4, 8]: > 5000 nM

SMILES: CCS(=O)(=O)c1ccc(OC)c(-c2cn(C)c(=O)c3ccc(-c4cn[nH]c4)cc23)c1 [Example 210, 4-(5-ethylsulfonyl-2-methoxyphenyl)-2-methyl-6-(1H-pyrazol-4-yl) isoquinolin-1-one]
- IC50 ([1]; HL-60, Cell-MTS proliferation): < 500 nM
- IC50 ([2]; Raji, Cell-MTS proliferation): < 500 nM
- IC50 [3, 7]: < 500 nM
- IC50 [4, 9]: > 5000 nM

SMILES: CCOc1ccc(S(=O)(=O)CC)cc1-c1cn(C)c(=O)c2cnc(-c3cnn(C)c3)nc12 [Example 227, 8-(2-ethoxy-5-ethylsulfonylphenyl)-6-methyl-2-(1-methylpyrazol-4-yl)pyrido[4,3-d]pyrimidin-5-one]
- IC50 ([1]; HL-60, Cell-MTS proliferation): < 500 nM
- IC50 ([2]; Raji, Cell-MTS proliferation): 500 to 5000 nM
- IC50 [3, 7]: < 500 nM
- IC50 [4, 9]: > 5000 nM

SMILES: Cc1cc(-c2cn(CS(C)(=O)=O)c(=O)cc2OCC2CC2)cn(C)c1=O [Example 382, 5-[4-(cyclopropylmethoxy)-1-(methylsulfonylmethyl)-6-oxopyridin-3-yl]-1,3-dimethylpyridin-2-one]
- IC50 [1, 5]: < 500 nM
- IC50 [2, 6]: 500 to 5000 nM
- IC50 [3, 7]: < 500 nM
- IC50 [4, 8]: > 5000 nM

SMILES: CCS(=O)(=O)c1ccc(OCC2CC2)c(-c2cn(C)c(=O)c3oc(C)cc23)c1 [Example 270, 4-[2-(cyclopropylmethoxy)-5-ethylsulfonylphenyl]-2,6-dimethylfuro[2,3-c]pyridine-7-one]
- IC50 ([1]; HL-60, Cell-MTS proliferation): < 500 nM
- IC50 ([2]; Raji, Cell-MTS proliferation): < 500 nM
- IC50 [3, 7]: < 500 nM
- IC50 [4, 9]: 500 to 5000 nM

SMILES: CCC(=O)Nc1ccc(S(C)(=O)=O)cc1-c1cn(C)c(=O)c2ccccc12 [Example 221, N-[2-(2-methyl-1-oxoisoquinolin-4-yl)-4-methylsulfonylphenyl]propanamide]
- IC50 ([1]; HL-60, Cell-MTS proliferation): > 5000 nM
- IC50 ([2]; Raji, Cell-MTS proliferation): > 5000 nM
- IC50 [3, 7]: > 5000 nM
- IC50 [4, 9]: > 5000 nM

SMILES: CCS(=O)(=O)c1ccc(OCC2CC2)c(-c2cn(C)c(=O)c3ccccc23)n1 [Example 206, 4-[3-(cyclopropylmethoxy)-6-ethylsulfonylpyridin-2-yl]-2-methylisoquinolin-1-one]
- IC50 ([1]; HL-60, Cell-MTS proliferation): < 500 nM
- IC50 ([2]; Raji, Cell-MTS proliferation): < 500 nM
- IC50 [3, 7]: < 500 nM
- IC50 [4, 9]: > 5000 nM

SMILES: Cn1cc(-c2cn(CS(C)(=O)=O)c(=O)cc2Oc2ccc(F)cc2F)ccc1=O [Example 386, 4-(2,4-difluorophenoxy)-5-(1-methyl-6-oxopyridin-3-yl)-1-(methylsulfonylmethyl)pyridin-2-one]
- IC50 [1, 5]: 500 to 5000 nM
- IC50 [2, 6]: 500 to 5000 nM
- IC50 [3, 7]: < 500 nM
- IC50 [4, 8]: > 5000 nM
